Measurements from ChEMBL document CHEMBL1201862, “PubChem BioAssay data set” (2004).
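Dose response: 5 concentrations. Exposure: 48 h. Format: 96-well plates. Endpoint: linear interpolation; highest concentration if not reached. Abbreviation: GI50, concentration required for 50% inhibition of growth.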 Active and inactive are the calls of the source. Rule as the data show it: active = GI50 up to about 1.1 µM and inactive = higher.

Legend:
Assay in all cases: inhibition of tumour cell growth, NCI panel, 48 h
NCI-H226 = tested on: NCI-H226
786-0 = tested on: 786-0
TK-10 = tested on: TK-10
HOP-92 = tested on: HOP-92
BT-549 = tested on: BT-549
RXF 393 = tested on: RXF 393
ACHN = tested on: ACHN
Hs-578T = tested on: Hs-578T
UACC-257 = tested on: UACC-257
KM12 = tested on: KM12
K562 = tested on: K562
RPMI-8226 = tested on: RPMI-8226
HCT-15 = tested on: HCT-15
U-251 = tested on: U-251
HCT-116 = tested on: HCT-116
LOX IMVI = tested on: LOX IMVI
UO-31 = tested on: UO-31
MDA-N = tested on: MDA-N
SK-MEL-2 = tested on: SK-MEL-2
MDA-MB-435 = tested on: MDA-MB-435
SNB-75 = tested on: SNB-75
MCF7 = tested on: MCF7
SN12C = tested on: SN12C
OVCAR-8 = tested on: OVCAR-8
IGROV-1 = tested on: IGROV-1
HOP-62 = tested on: HOP-62
SK-MEL-5 = tested on: SK-MEL-5
HCC 2998 = tested on: HCC 2998
EKVX = tested on: EKVX
A498 = tested on: A498
SK-MEL-28 = tested on: SK-MEL-28
PC-3 = tested on: PC-3
A549 = tested on: A549
MOLT-4 = tested on: MOLT-4
SNB-19 = tested on: SNB-19
OVCAR-5 = tested on: OVCAR-5
DU-145 = tested on: DU-145
COLO 205 = tested on: COLO 205
UACC-62 = tested on: UACC-62
NCI-H522 = tested on: NCI-H522
NCI/ADR-RES = tested on: NCI/ADR-RES
SK-OV-3 = tested on: SK-OV-3
CAKI-1 = tested on: CAKI-1
NCI-H460 = tested on: NCI-H460
CCRF-CEM = tested on: CCRF-CEM
OVCAR-3 = tested on: OVCAR-3
T47D = tested on: T47D
SW-620 = tested on: SW-620
SF-539 = tested on: SF-539
OVCAR-4 = tested on: OVCAR-4
SR = tested on: SR
HL-60 = tested on: HL-60
MDA-MB-231 = tested on: MDA-MB-231
Malme-3M = tested on: Malme-3M
SF-295 = tested on: SF-295
HT-29 = tested on: HT-29
M14 = tested on: M14
NCI-H23 = tested on: NCI-H23
SF-268 = tested on: SF-268

Structure (SMILES): CCOC(=O)c1cccc(/N=N/Nc2cccc(C(=O)OCC)c2)c1
- GI50 (NCI-H226): 43.5 µM (inactive)
- GI50 (786-0): 17.9 µM (inactive)
- GI50 (TK-10): 27.5 µM (inactive)
- GI50 (HOP-92): 22.3 µM (inactive)
- GI50 (BT-549): > 100 µM (inactive)
- GI50 (RXF 393): 19.1 µM (inactive)
- GI50 (ACHN): 53.8 µM (inactive)
- GI50 (Hs-578T): 30.8 µM (inactive)
- GI50 (UACC-257): 56.9 µM (inactive)
- GI50 (KM12): > 100 µM (inactive)
- GI50 (K562): 71.4 µM (inactive)
- GI50 (RPMI-8226): > 100 µM (inactive)
- GI50 (HCT-15): > 100 µM
- GI50 (U-251): 20.1 µM (inactive)
- GI50 (HCT-116): 31.9 µM (inactive)
- GI50 (LOX IMVI): > 100 µM (inactive)
- GI50 (UO-31): 17.7 µM (inactive)
- GI50 (MDA-N): 5.66 µM (inactive)
- GI50 (SK-MEL-2): 34.2 µM (inactive)
- GI50 (MDA-MB-435): 16.4 µM (inactive)
- GI50 (SNB-75): 14.6 µM (inactive)
- GI50 (MCF7): 61.7 µM (inactive)
- GI50 (SN12C): 30.1 µM (inactive)
- GI50 (OVCAR-8): 25.5 µM (inactive)
- GI50 (IGROV-1): 38.9 µM (inactive)
- GI50 (HOP-62): 9.12 µM (inactive)
- GI50 (SK-MEL-5): 23.4 µM (inactive)
- GI50 (HCC 2998): > 100 µM (inactive)
- GI50 (EKVX): 57.8 µM (inactive)
- GI50 (A498): 30.8 µM (inactive)
- GI50 (SK-MEL-28): > 100 µM (inactive)
- GI50 (PC-3): 34.4 µM (inactive)
- GI50 (A549): 74.5 µM (inactive)
- GI50 (MOLT-4): > 100 µM (inactive)
- GI50 (SNB-19): 20.6 µM (inactive)
- GI50 (OVCAR-5): 78.7 µM (inactive)
- GI50 (DU-145): > 100 µM (inactive)
- GI50 (COLO 205): > 100 µM (inactive)
- GI50 (UACC-62): 71.8 µM (inactive)
- GI50 (NCI-H522): 23.9 µM (inactive)
- GI50 (NCI/ADR-RES): 56.9 µM (inactive)
- GI50 (SK-OV-3): 28.7 µM (inactive)
- GI50 (CAKI-1): 42 µM (inactive)
- GI50 (NCI-H460): 64 µM (inactive)
- GI50 (CCRF-CEM): > 100 µM (inactive)
- GI50 (OVCAR-3): 26.8 µM (inactive)
- GI50 (T47D): > 100 µM (inactive)
- GI50 (SW-620): 68.7 µM (inactive)
- GI50 (SF-539): 14.2 µM (inactive)
- GI50 (OVCAR-4): 20.9 µM (inactive)
- GI50 (SR): 1.09 µM (active)
- GI50 (HL-60): > 100 µM (inactive)
- GI50 (MDA-MB-231): 17.8 µM (inactive)
- GI50 (Malme-3M): 43.8 µM (inactive)
- GI50 (SF-295): 15.6 µM (inactive)
- GI50 (HT-29): 52.8 µM (inactive)
- GI50 (M14): > 100 µM (inactive)
- GI50 (NCI-H23): 43.2 µM (inactive)
- GI50 (SF-268): 27 µM (inactive)

Structure (SMILES): O=C(Nc1ccn(C2CC(I)C(COC(c3ccccc3)(c3ccccc3)c3ccccc3)O2)c(=O)n1)c1ccccc1 (configuration not stated)
- GI50 (NCI-H226): 8.55 µM (inactive)
- GI50 (786-0): 8.34 µM (inactive)
- GI50 (TK-10): 15.9 µM (inactive)
- GI50 (HOP-92): 5.14 µM (inactive)
- GI50 (BT-549): 25.6 µM (inactive)
- GI50 (RXF 393): 8.59 µM (inactive)
- GI50 (ACHN): 12.7 µM (inactive)
- GI50 (Hs-578T): 3.03 µM (inactive)
- GI50 (UACC-257): 10.8 µM (inactive)
- GI50 (KM12): 7.46 µM (inactive)
- GI50 (K562): 5.28 µM (inactive)
- GI50 (RPMI-8226): 7.26 µM (inactive)
- GI50 (HCT-15): 8.73 µM
- GI50 (U-251): 10.1 µM (inactive)
- GI50 (HCT-116): 6.35 µM (inactive)
- GI50 (LOX IMVI): 8.18 µM (inactive)
- GI50 (UO-31): 4.53 µM (inactive)
- GI50 (MDA-N): 7.91 µM (inactive)
- GI50 (SK-MEL-2): > 10 µM (inactive)
- GI50 (MDA-MB-435): 7.36 µM (inactive)
- GI50 (SNB-75): 2.43 µM (inactive)
- GI50 (MCF7): 4.86 µM (inactive)
- GI50 (SN12C): 4.36 µM (inactive)
- GI50 (OVCAR-8): 9.25 µM (inactive)
- GI50 (IGROV-1): 13.3 µM (inactive)
- GI50 (HOP-62): 14 µM (inactive)
- GI50 (SK-MEL-5): 9.53 µM (inactive)
- GI50 (HCC 2998): 12.6 µM (inactive)
- GI50 (EKVX): 13.2 µM (inactive)
- GI50 (A498): 7.03 µM (inactive)
- GI50 (SK-MEL-28): 11.4 µM (inactive)
- GI50 (PC-3): 2.36 µM (inactive)
- GI50 (A549): 7.83 µM (inactive)
- GI50 (MOLT-4): 4.13 µM (inactive)
- GI50 (SNB-19): 12.9 µM (inactive)
- GI50 (OVCAR-5): > 21.5 µM (inactive)
- GI50 (DU-145): 11.9 µM (inactive)
- GI50 (COLO 205): 7.59 µM (inactive)
- GI50 (UACC-62): 11.2 µM (inactive)
- GI50 (NCI-H522): 11 µM (inactive)
- GI50 (NCI/ADR-RES): 9.75 µM (inactive)
- GI50 (SK-OV-3): 15.5 µM (inactive)
- GI50 (CAKI-1): 15.6 µM (inactive)
- GI50 (NCI-H460): 7.11 µM (inactive)
- GI50 (CCRF-CEM): 8.89 µM (inactive)
- GI50 (OVCAR-3): 4.25 µM (inactive)
- GI50 (T47D): 6.87 µM (inactive)
- GI50 (SW-620): 14 µM (inactive)
- GI50 (SF-539): 12.4 µM (inactive)
- GI50 (OVCAR-4): 3.75 µM (inactive)
- GI50 (SR): 0.6 µM (active)
- GI50 (HL-60): 5.83 µM (inactive)
- GI50 (MDA-MB-231): 9.57 µM (inactive)
- GI50 (Malme-3M): 7.78 µM (inactive)
- GI50 (SF-295): 13.6 µM (inactive)
- GI50 (HT-29): 6.5 µM (inactive)
- GI50 (M14): 10.8 µM (inactive)
- GI50 (NCI-H23): 6.89 µM (inactive)
- GI50 (SF-268): 12 µM (inactive)

Structure (SMILES): COC(=O)C1=CC2CCCC1(O)C(C(C)=O)C2 (configuration not stated)
- GI50 (NCI-H226): > 100 µM (inactive)
- GI50 (786-0): 20.2 µM (inactive)
- GI50 (TK-10): > 100 µM (inactive)
- GI50 (HOP-92): 41.4 µM (inactive)
- GI50 (BT-549): > 95.7 µM (inactive)
- GI50 (RXF 393): > 70.1 µM (inactive)
- GI50 (ACHN): > 100 µM (inactive)
- GI50 (Hs-578T): > 100 µM (inactive)
- GI50 (UACC-257): > 100 µM (inactive)
- GI50 (KM12): > 81.1 µM (inactive)
- GI50 (K562): 34 µM (inactive)
- GI50 (RPMI-8226): 25.1 µM (inactive)
- GI50 (HCT-15): > 66.5 µM
- GI50 (U-251): 63.2 µM (inactive)
- GI50 (HCT-116): 62.1 µM (inactive)
- GI50 (LOX IMVI): 16.6 µM (inactive)
- GI50 (UO-31): 17.3 µM (inactive)
- GI50 (MDA-N): 97.9 µM (inactive)
- GI50 (SK-MEL-2): > 68.7 µM (inactive)
- GI50 (MDA-MB-435): > 100 µM (inactive)
- GI50 (SNB-75): 24.4 µM (inactive)
- GI50 (MCF7): > 79.6 µM (inactive)
- GI50 (SN12C): > 100 µM (inactive)
- GI50 (OVCAR-8): 44.4 µM (inactive)
- GI50 (IGROV-1): 15.4 µM (inactive)
- GI50 (HOP-62): > 75 µM (inactive)
- GI50 (SK-MEL-5): > 100 µM (inactive)
- GI50 (HCC 2998): > 100 µM (inactive)
- GI50 (EKVX): 52.7 µM (inactive)
- GI50 (A498): > 100 µM (inactive)
- GI50 (SK-MEL-28): > 100 µM (inactive)
- GI50 (PC-3): 61.2 µM (inactive)
- GI50 (A549): 51.9 µM (inactive)
- GI50 (MOLT-4): 21.1 µM (inactive)
- GI50 (SNB-19): > 100 µM (inactive)
- GI50 (OVCAR-5): > 100 µM (inactive)
- GI50 (DU-145): > 69.7 µM (inactive)
- GI50 (COLO 205): 39.8 µM (inactive)
- GI50 (UACC-62): > 94.4 µM (inactive)
- GI50 (NCI-H522): 15.5 µM (inactive)
- GI50 (NCI/ADR-RES): > 63.2 µM (inactive)
- GI50 (SK-OV-3): > 100 µM (inactive)
- GI50 (CAKI-1): > 100 µM (inactive)
- GI50 (NCI-H460): > 85.1 µM (inactive)
- GI50 (CCRF-CEM): 21.1 µM (inactive)
- GI50 (OVCAR-3): > 100 µM (inactive)
- GI50 (T47D): 27.4 µM (inactive)
- GI50 (SW-620): > 61.8 µM (inactive)
- GI50 (SF-539): 11.6 µM (inactive)
- GI50 (OVCAR-4): > 62.7 µM (inactive)
- GI50 (SR): 31.3 µM (inactive)
- GI50 (HL-60): 24.2 µM (inactive)
- GI50 (MDA-MB-231): 46.6 µM (inactive)
- GI50 (Malme-3M): > 100 µM (inactive)
- GI50 (SF-295): > 67.5 µM (inactive)
- GI50 (HT-29): > 100 µM (inactive)
- GI50 (M14): > 100 µM (inactive)
- GI50 (NCI-H23): > 77.1 µM (inactive)
- GI50 (SF-268): > 21.7 µM (inactive)
